Measurements from paper PMC3272276 (The Journal of Organic Chemistry, 2010).

Test system: Candida albicans
Test: Antifungal activity
Format: cell-based

Substance: mutremdamide A
- inhibition of growth of Candida albicans (in words): None of the koshikamides or mutremdamide A inhibited the growth

Substance: theonellamide A
- inhibition of growth of Candida albicans (in words): antifungal activity of the extracts was traced to the known peptide theonellamide A
